# From ChEMBL document CHEMBL5370591, “A Potent and Narrow-Spectrum Antibacterial against Clostridioides difficile Infection” (J Med Chem, 2023)
# Active and inactive are the calls of the source. No cut-off for these calls is given here.
# How the values were obtained:
# [1] = test system: THP-1; assay: Cytotoxicity against human THP-1 cells assessed as increase in LDH release incubate for 24 hrs by trypan-blue staining based analysis; format: functional, cell-based; details: THP-1, 24 h
# [2] = Selectivity ratio of IC50 for human THP-1 cells to MIC for Clostridium difficile ATCC 43255; format: toxicity
# [3] = test system: Clostridioides difficile; assay: Antibacterial activity against Clostridium difficile ATCC 43255 measured after 48 hrs by two fold serial dilution method; format: functional
# [4] = test system: Klebsiella pneumoniae; assay: Antibacterial activity against Klebsiella pneumoniae ATCC700603 assessed as inhibition of bacterial growth by broth microdilution method; format: functional
# [5] = test system: Acinetobacter baumannii; assay: Antibacterial activity against Acinetobacter baumannii ATCC17961 assessed as inhibition of bacterial growth by broth microdilution method; format: functional
# [6] = test system: Clostridioides difficile; assay: Antibacterial activity against Clostridium difficile 26675 assessed as inhibition of bacterial growth by broth microdilution method; format: functional
# [7] = test system: Escherichia coli; assay: Antibacterial activity against Escherichia coli ATCC25922 assessed as inhibition of bacterial growth by broth microdilution method; format: functional
# [8] = test system: Streptococcus pyogenes; assay: Antibacterial activity against Streptococcus pyogenes ATCC 49399 assessed as inhibition of bacterial growth by broth microdilution method; format: functional
# [9] = test system: Clostridioides difficile; assay: Antibacterial activity against Clostridium difficile BAA-1870 assessed as inhibition of bacterial growth by broth microdilution method; format: functional
# [10] = test system: Staphylococcus aureus; assay: Antibacterial activity against vancomycin-resistant Staphylococcus aureus clinical isolate 2 assessed as inhibition of bacterial growth by broth microdilution method; format: functional
# [11] = test system: Enterococcus faecium; assay: Antibacterial activity against vancomycin susceptible Enterococcus faecium119-39A assessed as inhibition of bacterial growth by broth microdilution method; format: functional; details: 119-39A
# [12] = test system: Enterococcus faecium; assay: Antibacterial activity against Enterococcus faecium NCTC 7171 assessed as inhibition of bacterial growth by broth microdilution method; format: functional
# [13] = test system: Clostridioides difficile; assay: Antibacterial activity against Clostridium difficile BAA-1803 assessed as inhibition of bacterial growth by broth microdilution method; format: functional
# [14] = test system: Enterococcus faecalis; assay: Antibacterial activity against vancomycin susceptible Enterococcus faecalis 201 assessed as inhibition of bacterial growth by broth microdilution method; format: functional
# [15] = test system: Bacillus licheniformis; assay: Antibacterial activity against Bacillus licheniformis ATCC 12759 assessed as inhibition of bacterial growth by broth microdilution method; format: functional
# [16] = test system: Enterococcus faecalis; assay: Antibacterial activity against Enterococcus faecalis ATCC 29212 assessed as inhibition of bacterial growth by broth microdilution method; format: functional
# [17] = test system: Enterococcus faecalis; assay: Antibacterial activity against vancomycin resistant Enterococcus faecalis 99 assessed as inhibition of bacterial growth by broth microdilution method; format: functional
# [18] = test system: Enterococcus faecium; assay: Antibacterial activity against vancomycin resistant Enterococcus faecium 106 assessed as inhibition of bacterial growth by broth microdilution method; format: functional
# [19] = test system: Clostridioides difficile; assay: Antibacterial activity against Clostridium difficile 23828 assessed as inhibition of bacterial growth by broth microdilution method; format: functional
# [20] = test system: Staphylococcus epidermidis; assay: Antibacterial activity against Staphylococcus epidermidis ATCC 35547 assessed as inhibition of bacterial growth by broth microdilution method; format: functional
# [21] = test system: Staphylococcus haemolyticus; assay: Antibacterial activity against Staphylococcus haemolyticus ATCC 29970 assessed as inhibition of bacterial growth by broth microdilution method; format: functional
# [22] = test system: Bacillus cereus; assay: Antibacterial activity against Bacillus cereus ATCC 13061 assessed as inhibition of bacterial growth by broth microdilution method; format: functional
# [23] = test system: Klebsiella aerogenes; assay: Antibacterial activity against Klebsiella aerogenes ATCC35029 assessed as inhibition of bacterial growth by broth microdilution method; format: functional
# [24] = test system: Staphylococcus aureus; assay: Antibacterial activity against vancomycin-resistant Staphylococcus aureus clinical isolate 1 assessed as inhibition of bacterial growth by broth microdilution method; format: functional
# [25] = test system: Clostridioides difficile; assay: Antibacterial activity against Clostridium difficile 24531 assessed as inhibition of bacterial growth by broth microdilution method; format: functional
# [26] = test system: Clostridioides difficile; assay: Antibacterial activity against Clostridium difficile ATCC 43255 assessed as damage in cell wall at 8 time MIC incubated for 24 hrs by scanning electron microscopy based analysis; format: functional, organism-based
# [27] = test system: Corynebacterium sp.; assay: Antibacterial activity against Corynebacterium sp. HM-784 assessed as inhibition of bacterial growth by broth microdilution method; format: functional
# [28] = test system: Bifidobacterium longum; assay: Antibacterial activity against Bifidobacterium longum HM-846 assessed as inhibition of bacterial growth by broth microdilution method; format: functional
# [29] = test system: Pseudomonas aeruginosa; assay: Antibacterial activity against Pseudomonas aeruginosa ATCC27853 assessed as inhibition of bacterial growth by broth microdilution method; format: functional
compound,measurement,setting,value
Oc1ccc(-c2noc(-c3ccc(OC4CCCC4)cc3)n2)cc1,IC50,[1],8.5 µg/mL
same,selectivity ratio,[2],2
same,MIC,[3],4 µg/mL
Oc1c(F)cc(-c2nc(-c3ccc(Oc4ccc(C(F)(F)F)cc4)cc3)no2)cc1F,IC50,[1],18 µg/mL
same,selectivity ratio,[2],4
Oc1ccc(-c2nc(-c3ccc(Oc4cccc(I)c4)cc3)no2)cc1,IC50,[1],17 µg/mL
same,selectivity ratio,[2],4
Oc1ccc(-c2nc(-c3ccc(Oc4ccc(C(F)(F)F)cc4)cc3)no2)cc1,IC50,[1],17 µg/mL
same,selectivity ratio,[2],9
same,MIC,[3],2 µg/mL
Cl.NCc1ccc(-c2nc(-c3ccc(Oc4ccc(C(F)(F)F)cc4)cc3)no2)cc1,selectivity ratio,[2],1
same,MIC,[3],4 µg/mL
O=[N+]([O-])c1c[nH]nc1-c1nc(-c2ccc(Oc3ccc(C(F)(F)F)cc3)cc2)no1,IC50,[1],21 µg/mL
same,selectivity ratio,[2],5
same,MIC,[3],4 µg/mL
O=[N+]([O-])c1c[nH]nc1-c1nc(-c2ccc3oc4ccccc4c3c2)no1,selectivity ratio,[2],2
same,MIC,[3],4 µg/mL
O=[N+]([O-])c1ccccc1Oc1ccc(-c2noc(-c3ccc(O)cc3)n2)cc1,IC50,[1],16 µg/mL
same,selectivity ratio,[2],3
same,MIC,[3],4 µg/mL
O=[N+]([O-])c1c[nH]nc1-c1nc(-c2ccc(Oc3ccc(I)cc3)cc2)no1,IC50,[1],100 µg/mL
same,selectivity ratio,[2],25
same,MIC,[3],4 µg/mL
O=[N+]([O-])c1c[nH]nc1-c1nc(-c2ccc(OC(F)(F)F)cc2)no1,IC50,[1],25 µg/mL
same,selectivity ratio,[2],6
same,MIC,[3],4 µg/mL
Oc1ccc(-c2nc(-c3ccc(Oc4ccccc4)c(Br)c3)no2)cc1,MIC,[3],> 128 µg/mL
COc1ccc2oc3ccc(-c4noc(-c5n[nH]cc5[N+](=O)[O-])n4)cc3c2c1,MIC,[3],64 µg/mL
CS(=O)(=O)Nc1ccc(-c2nc(-c3ccc(OC4CCCC4)cc3)no2)cc1,MIC,[3],> 128 µg/mL
O=[N+]([O-])c1cc(-c2nc(-c3ccc(Oc4ccc(C(F)(F)F)cc4)cc3)no2)cnc1O,IC50,[1],37 µg/mL
same,selectivity ratio,[2],19
same,MIC,[3],2 µg/mL
CCOc1ccc(-c2noc(-c3ccc(O)cc3)n2)cc1,MIC,[3],> 128 µg/mL
Nc1cc(Oc2ccccc2)ccc1-c1noc(-c2ccc(O)cc2)n1,MIC,[3],> 128 µg/mL
Cc1ncc([N+](=O)[O-])n1CCO [METRONIDAZOLE],MIC,[4],> 128 µg/mL
same,MIC,[5],> 128 µg/mL
same,MIC,[6],4 µg/mL
same,MIC,[7],> 128 µg/mL
same,MIC,[8],> 128 µg/mL
same,MIC,[9],0.5 µg/mL
same,MIC,[10],> 256 µg/mL
same,MIC,[11],> 16 µg/mL
same,MIC,[12],> 128 µg/mL
same,MIC,[13],0.5 µg/mL
same,MIC,[14],> 256 µg/mL
same,MIC,[15],> 256 µg/mL
same,MIC,[16],> 256 µg/mL
same,MIC,[17],> 256 µg/mL
same,MIC,[18],> 16 µg/mL
same,MIC,[19],0.5 µg/mL
same,MIC,[20],> 128 µg/mL
same,MIC,[21],> 256 µg/mL
same,MIC,[22],> 256 µg/mL
same,MIC,[23],> 128 µg/mL
same,MIC,[24],> 256 µg/mL
same,MIC,[25],0.5 µg/mL
same,Activity,[26],inactive
same,MIC,[27],> 32 µg/mL
same,MIC,[28],0.05 µg/mL
same,MIC,[29],> 128 µg/mL
FC(F)(F)c1ccc(Oc2ccc(-c3noc(-c4cn[nH]n4)n3)cc2)cc1,MIC,[3],> 128 µg/mL
Nc1cncc(-c2nc(-c3ccc(Oc4ccc(C(F)(F)F)cc4)cc3)no2)c1,MIC,[3],> 128 µg/mL
CC(C)(C)OC(=O)N1CCC(Nc2c[nH]nc2-c2nc(-c3ccc(Oc4ccc(C(F)(F)F)cc4)cc3)no2)CC1,MIC,[3],> 128 µg/mL
C[C@@H](NC(=O)OC(C)(C)C)c1nc(-c2ccc(OC3CCCC3)cc2)no1,MIC,[3],> 128 µg/mL
O=C(NNC(=O)c1ccc(OC2CCCC2)cc1)c1ccc(O)cc1,MIC,[3],> 128 µg/mL
FC(F)(F)c1ccc(Oc2ccc(-c3noc(-c4n[nH]cc4NC4CCCCC4)n3)cc2)cc1,MIC,[3],> 128 µg/mL
C#CCCOc1ccc(-c2noc(-c3ccc(O)cc3)n2)cc1,MIC,[3],> 128 µg/mL
FC(F)(F)c1ccc(Oc2ccc(-c3noc(-c4nc[nH]n4)n3)cc2)cc1,MIC,[3],> 128 µg/mL
Oc1ccc(-n2cc(-c3ccc(Oc4ccccc4)cc3)nn2)cc1,MIC,[3],> 128 µg/mL
Oc1ccc(-c2nc(N3CCN(c4ccccc4)CC3)no2)cc1,MIC,[3],> 128 µg/mL
Cl.Nc1nc(-c2ccc(OC3CCCC3)cc2)no1,MIC,[3],> 128 µg/mL
C[C@@H](NC(=O)OC(C)(C)C)C(=O)N[C@H](C)c1nc(-c2ccc(OC3CCCC3)cc2)no1,MIC,[3],> 128 µg/mL
Nc1ccc(-c2nc(-c3ccc(OC4CCCC4)cc3)no2)cc1,MIC,[3],> 128 µg/mL
Oc1cccc(/C=C/c2nc(-c3ccc(OC4CCCC4)cc3)no2)c1,MIC,[3],> 128 µg/mL
CN1CCC(Oc2ccc(-c3noc(-c4nc([N+](=O)[O-])c[nH]4)n3)cc2)C1.Cl (stereo not drawn),MIC,[3],> 128 µg/mL
FC(F)(F)c1ccc(Oc2ccc(-c3noc(-c4n[nH]cc4Br)n3)cc2)cc1,MIC,[3],> 128 µg/mL
Oc1ccc(-c2nc(-c3ccc(C(O)C(F)(F)F)cc3)no2)cc1 (stereo not drawn),MIC,[3],32 µg/mL
FC(F)(F)c1ccc(Oc2ccc(-c3noc(-c4cc[nH]n4)n3)cc2)cc1,MIC,[3],> 128 µg/mL
Cl.O=[N+]([O-])c1c[nH]c(-c2nc(-c3ccc(OC4CCNCC4)cc3)no2)n1,MIC,[3],> 128 µg/mL
c1cc2cc(-c3nc(-c4ccc5c(c4)CCO5)no3)ccc2[nH]1,MIC,[3],> 128 µg/mL
Oc1ccc(-c2nc(-c3ccc(Oc4ccccc4)cc3)no2)cc1,IC50,[1],17 µg/mL
same,selectivity ratio,[2],8
same,MIC,[3],2 µg/mL
Oc1ccc(Nc2nc(-c3ccc(OC4CCCC4)cc3)no2)cc1,MIC,[3],32 µg/mL
Nc1c[nH]nc1-c1nc(-c2ccc(Oc3ccc(C(F)(F)F)cc3)cc2)no1,MIC,[3],> 128 µg/mL
Oc1ccc(-c2nc(-c3ccc(OC(F)(F)F)cc3)no2)cc1,MIC,[3],64 µg/mL
Oc1ccc(-c2nc(-c3ccc(Oc4ccc(C(F)(F)F)cc4)cc3)no2)cc1F,IC50,[1],5.2 µg/mL
same,selectivity ratio,[2],1
same,MIC,[3],4 µg/mL
C#CCOc1ccc(-c2noc(-c3ccc(O)cc3)n2)cc1,MIC,[3],128 µg/mL
NC1CCN(c2ccc(-c3noc(-c4ccc(O)cc4)n3)cc2)CC1,MIC,[3],64 µg/mL
Oc1ccc(-c2nc(-c3ccc4c(c3)OCO4)no2)cc1,MIC,[3],> 128 µg/mL
Nc1ccc(-c2nc(-c3ccc(Oc4ccc(C(F)(F)F)cc4)cc3)no2)cc1F,MIC,[3],> 128 µg/mL
Oc1nc(-c2ccc(OC3CCCC3)cc2)no1,MIC,[3],64 µg/mL
O=Cc1ccc(-c2noc(-c3ccc(O)cc3)n2)cc1,MIC,[3],> 128 µg/mL
Oc1ccc(-c2nc(-c3ccc(OC4CCOC4)cc3)no2)cc1 (stereo not drawn),MIC,[3],> 128 µg/mL
CN1CCN(c2ccc(-c3noc(-c4ccc(O)cc4)n3)cc2)CC1,MIC,[3],> 128 µg/mL
O=C(Nc1c[nH]nc1-c1nc(-c2ccc(Oc3ccc(C(F)(F)F)cc3)cc2)no1)c1ccccc1,MIC,[3],> 128 µg/mL
Oc1ccc(/C=C/c2nc(-c3ccc(OC4CCCC4)cc3)no2)cc1,MIC,[3],64 µg/mL
Oc1ccc(-c2nc(-c3ccc(OC4CCCCC4Br)cc3)no2)cc1 (stereo not drawn),IC50,[1],8.4 µg/mL
same,selectivity ratio,[2],4
same,MIC,[3],2 µg/mL
COc1ccc(-c2noc(-c3ccc(O)cc3)n2)cc1OC,MIC,[3],> 128 µg/mL
